Literature values as cited in PubChem BioAssay AID1259409 (Chemical Carcinogenesis Research Information System (CCRIS), 2018).

System: rodent chemically induced tumor inhibition, incidence and multiplicity
Test: CCRIS tumor inhibitor studies
Conditions: Carcinogen: BENZO[A]PYRENE, 50-32-8, Route [Inhibitor]: ORAL, Species: MOUSE, Strain/Sex: STRAIN-A/FEMALE, Promoter: NONE USED

## CCCN(CCC)c1c([N+](=O)[O-])cc(C(F)(F)F)cc1[N+](=O)[O-]
Dose [Inhibitor]: 1000 PPM IN DIET CONTAINING 5% CORN OIL BEGINNING 1 WK PRIOR TO 1ST CARCINOGEN TREATMENT AND CONTINUING FOR 18 WK (STUDY, Target Tissue: Type of Lesion: FORESTOMACH: SQUAMOUS CELL PAPILLOMA, Dose [Carcinogen]: 3 MG IN 0.25 ML CORN OIL AT 10 AND 12 WK OF AGE
  tumour outcome (control, treated, inhibition, significance): 100%, 84%, 16%, not significant
Dose [Inhibitor]: 1000 PPM IN DIET CONTAINING 5% CORN OIL BEGINNING 1 WK PRIOR TO 1ST CARCINOGEN TREATMENT AND CONTINUING FOR 18 WK (STUDY, Target Tissue: Type of Lesion: LUNG: ADENOMA, Dose [Carcinogen]: 3 MG IN 0.25 ML CORN OIL AT 10 AND 12 WK OF AGE
  tumour outcome (control, treated, inhibition, significance): 97%, 96%, 1%, not significant
Dose [Inhibitor]: 1500 PPM IN DIET CONTAINING 5% CORN OIL BEGINNING 1 DAY POST LAST CARCINOGEN DOSE AND CONTINUING FOR 12 WK (STUDY DURATI, Target Tissue: Type of Lesion: LUNG: ADENOMA, Dose [Carcinogen]: 3 MG IN 0.25 ML CORN OIL AT 6 AND 8 WK OF AGE
  tumour outcome (control, treated, inhibition, significance): 80%, 32%, 60%, not significant
Dose [Inhibitor]: 1500 PPM IN DIET CONTAINING 5% CORN OIL BEGINNING 1 WK POST LAST CARCINOGEN DOSE AND CONTINUING FOR 12 WK (STUDY DURATIO, Target Tissue: Type of Lesion: FORESTOMACH: SQUAMOUS CELL PAPILLOMA, Dose [Carcinogen]: 3 MG IN 0.25 ML CORN OIL AT 6 AND 8 WK OF AGE
  tumour outcome (control, treated, inhibition, significance): 100%, 88%, 12%, not significant
Dose [Inhibitor]: 1500 PPM IN DIET CONTAINING 5% CORN OIL BEGINNING 4 D POST LAST CARCINOGEN DOSE AND CONTINUING FOR 12 WK (STUDY DURATION, Target Tissue: Type of Lesion: FORESTOMACH: SQUAMOUS CELL PAPILLOMA, Dose [Carcinogen]: 3 MG IN 0.25 ML CORN OIL AT 6 AND 8 WK OF AGE
  tumour outcome (control, treated, inhibition, significance): 92%, 80%, 13%, not significant
Dose [Inhibitor]: 1500 PPM IN DIET CONTAINING 5% CORN OIL BEGINNING 4 D POST LAST CARCINOGEN DOSE AND CONTINUING FOR 12 WK (STUDY DURATION, Target Tissue: Type of Lesion: LUNG: ADENOMA, Dose [Carcinogen]: 3 MG IN 0.25 ML CORN OIL AT 6 AND 8 WK OF AGE
  tumour outcome (control, treated, inhibition, significance): 72%, 40%, 44%, not significant
Dose [Inhibitor]: 1500 PPM IN DIET CONTAINING 5% CORN OIL BEGINNING 7 D POST LAST CARCINOGEN DOSE AND CONTINUING FOR 12 WK (STUDY DURATION, Target Tissue: Type of Lesion: FORESTOMACH: SQUAMOUS CELL PAPILLOMA, Dose [Carcinogen]: 3 MG IN 0.25 ML CORN OIL AT 6 AND 8 WK OF AGE
  tumour outcome (control, treated, inhibition, significance): 100%, 92%, 8%, not significant
Dose [Inhibitor]: 1500 PPM IN DIET CONTAINING 5% CORN OIL BEGINNING 7 D POST LAST CARCINOGEN DOSE AND CONTINUING FOR 12 WK (STUDY DURATION, Target Tissue: Type of Lesion: LUNG: ADENOMA, Dose [Carcinogen]: 3 MG IN 0.25 ML CORN OIL AT 6 AND 8 WK OF AGE
  tumour outcome (control, treated, inhibition, significance): 72%, 60%, 17%, not significant
Dose [Inhibitor]: 1500 PPM IN DIET CONTAINING 5% CORN OIL BEGINNING ON DAY OF LAST CARCINOGEN DOSE AND CONTINUING FOR 12 WK (STUDY DURATIO, Target Tissue: Type of Lesion: FORESTOMACH: SQUAMOUS CELL PAPILLOMA, Dose [Carcinogen]: 3 MG IN 0.25 ML CORN OIL AT 6 AND 8 WK OF AGE
  tumour outcome (control, treated, inhibition, significance): 88%, 100%, -14%, not significant
Dose [Inhibitor]: 1500 PPM IN DIET CONTAINING 5% CORN OIL BEGINNING ON DAY OF LAST CARCINOGEN DOSE AND CONTINUING FOR 12 WK (STUDY DURATIO, Target Tissue: Type of Lesion: LUNG: ADENOMA, Dose [Carcinogen]: 3 MG IN 0.25 ML CORN OIL AT 6 AND 8 WK OF AGE
  tumour outcome (control, treated, inhibition, significance): 76%, 52%, 32%, not significant
Dose [Inhibitor]: 2000 PPM IN DIET CONTAINING 5% CORN OIL BEGINNING 1 WK PRIOR TO 1ST CARCINOGEN TREATMENT AND CONTINUING FOR 18 WK (STUDY, Target Tissue: Type of Lesion: FORESTOMACH: SQUAMOUS CELL PAPILLOMA, Dose [Carcinogen]: 3 MG IN 0.25 ML CORN OIL AT 10 AND 12 WK OF AGE
  tumour outcome (control, treated, inhibition, significance): 100%, 63%, 37%, not calculated
Dose [Inhibitor]: 2000 PPM IN DIET CONTAINING 5% CORN OIL BEGINNING 1 WK PRIOR TO 1ST CARCINOGEN TREATMENT AND CONTINUING FOR 18 WK (STUDY, Target Tissue: Type of Lesion: LUNG: ADENOMA, Dose [Carcinogen]: 3 MG IN 0.25 ML CORN OIL AT 10 AND 12 WK OF AGE
  tumour outcome (control, treated, inhibition, significance): 97%, 74%, 24%, not calculated
